Here are results for 7 compounds from ChEMBL document CHEMBL5625231, “Targeting autophagy with small-molecule activators for potential therapeutic purposes” (Eur J Med Chem, 2023).

In test [1] the target is T1, Serine/threonine-protein kinase ULK1 (Homo sapiens) (UniProt O75385).
T1 sequence (whole entry): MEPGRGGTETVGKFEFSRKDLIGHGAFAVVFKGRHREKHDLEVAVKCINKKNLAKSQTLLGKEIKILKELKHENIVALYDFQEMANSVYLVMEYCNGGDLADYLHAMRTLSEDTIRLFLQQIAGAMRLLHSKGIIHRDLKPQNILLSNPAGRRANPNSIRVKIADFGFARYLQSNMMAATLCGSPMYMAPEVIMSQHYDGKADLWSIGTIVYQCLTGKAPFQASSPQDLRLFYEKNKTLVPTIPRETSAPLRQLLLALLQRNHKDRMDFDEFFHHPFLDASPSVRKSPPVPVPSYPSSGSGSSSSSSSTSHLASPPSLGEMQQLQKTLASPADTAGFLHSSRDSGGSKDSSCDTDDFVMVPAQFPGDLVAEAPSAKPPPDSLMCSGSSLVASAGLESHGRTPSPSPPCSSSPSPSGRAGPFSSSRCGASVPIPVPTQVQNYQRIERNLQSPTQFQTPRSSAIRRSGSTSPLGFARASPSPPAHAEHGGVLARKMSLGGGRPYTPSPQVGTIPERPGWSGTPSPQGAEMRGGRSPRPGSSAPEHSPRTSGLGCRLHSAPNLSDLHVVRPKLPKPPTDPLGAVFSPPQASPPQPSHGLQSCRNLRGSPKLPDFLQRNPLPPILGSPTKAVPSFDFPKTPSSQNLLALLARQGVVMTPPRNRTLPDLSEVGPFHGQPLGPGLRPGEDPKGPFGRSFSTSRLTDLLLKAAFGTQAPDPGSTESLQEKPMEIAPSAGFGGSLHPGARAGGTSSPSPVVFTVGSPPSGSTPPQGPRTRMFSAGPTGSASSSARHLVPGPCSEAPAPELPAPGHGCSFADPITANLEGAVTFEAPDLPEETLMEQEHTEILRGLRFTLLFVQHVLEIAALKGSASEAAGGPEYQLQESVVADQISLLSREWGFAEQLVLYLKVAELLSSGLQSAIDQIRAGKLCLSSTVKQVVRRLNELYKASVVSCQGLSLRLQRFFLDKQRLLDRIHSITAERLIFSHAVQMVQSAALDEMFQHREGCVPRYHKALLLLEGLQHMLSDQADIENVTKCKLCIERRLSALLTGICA
Nature of the test: Agonist activity at ULK1 (unknown origin) at 100 nM incubated for 60 mins in presence of ATP by ADP-glo assay relative to control. The note with it: filed as agonist. Background: ADP-Glo turns the ADP formed in a reaction into a luminescent signal.

Test [2] deals with MDA-MB-231. Nature of the test: Antiproliferative activity against human MDA-MB-231 cells assessed reduction in cell viability incubated for 24 hrs by MTT assay. It counts as functional, cell-based. The note with it: MDA-MB-231, 24 h.
The target of test [3] is Forkhead box protein O1 (Homo sapiens, UniProt Q12778). Kind of test: Activation of FoxO1(unknown origin).
Test [4] concerns the target T2, Transcription factor EB (Homo sapiens, UniProt P19484).
T2 sequence (P19484 whole entry): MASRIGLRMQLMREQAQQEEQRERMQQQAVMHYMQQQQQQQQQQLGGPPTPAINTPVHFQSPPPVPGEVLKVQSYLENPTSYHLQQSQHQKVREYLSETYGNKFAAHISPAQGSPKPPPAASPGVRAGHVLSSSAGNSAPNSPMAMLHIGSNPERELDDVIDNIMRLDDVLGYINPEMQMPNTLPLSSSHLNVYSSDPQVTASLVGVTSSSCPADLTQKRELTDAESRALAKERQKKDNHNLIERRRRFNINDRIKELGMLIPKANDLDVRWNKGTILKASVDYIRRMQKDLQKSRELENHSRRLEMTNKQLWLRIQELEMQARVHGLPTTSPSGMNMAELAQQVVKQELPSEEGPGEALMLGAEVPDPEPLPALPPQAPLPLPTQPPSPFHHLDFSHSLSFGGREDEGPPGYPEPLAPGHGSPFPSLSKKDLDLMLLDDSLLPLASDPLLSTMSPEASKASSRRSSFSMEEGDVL
Nature of the test: Binding affinity to full length N-terminal his6-tagged human TFEB expressed in Escherichia coli by isothermal titration calorimetry analysis.

Test [5] is described as follows: Activation of AMPK in rat hepatocyte using SAMS as substrate incubated for 30 mins in presence of [gamma-33P]ATP. The test is classed as cell-based.

Chain of Forkhead box protein O1 (Q12778 whole entry): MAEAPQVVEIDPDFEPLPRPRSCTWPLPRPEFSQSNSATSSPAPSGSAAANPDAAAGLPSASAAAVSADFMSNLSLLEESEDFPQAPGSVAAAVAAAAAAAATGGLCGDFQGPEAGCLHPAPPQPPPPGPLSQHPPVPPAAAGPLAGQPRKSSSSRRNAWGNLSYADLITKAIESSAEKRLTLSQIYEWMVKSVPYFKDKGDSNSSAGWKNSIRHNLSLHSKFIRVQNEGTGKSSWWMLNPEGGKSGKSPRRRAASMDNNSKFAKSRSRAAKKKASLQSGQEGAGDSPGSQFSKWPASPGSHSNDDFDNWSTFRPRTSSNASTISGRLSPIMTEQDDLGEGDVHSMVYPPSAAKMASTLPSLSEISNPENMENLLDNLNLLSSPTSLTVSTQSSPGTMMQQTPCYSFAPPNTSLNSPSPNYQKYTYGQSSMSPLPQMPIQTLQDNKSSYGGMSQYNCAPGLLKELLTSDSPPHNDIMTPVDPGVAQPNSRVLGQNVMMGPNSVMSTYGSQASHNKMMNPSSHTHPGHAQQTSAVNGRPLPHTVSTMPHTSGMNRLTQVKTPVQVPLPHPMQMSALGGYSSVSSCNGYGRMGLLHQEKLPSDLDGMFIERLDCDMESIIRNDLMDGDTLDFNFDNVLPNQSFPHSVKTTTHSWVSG

For orientation: IC50 means the concentration that gives 50% inhibition. High values mean weaker potency in that assay, low ones greater potency in that assay. In the case of `CC(C)(C)OC(=O)N1CCN(CC(OCc2ccc3ccccc3c2)c2ccc(Cl)cc2Cl)CC1` (stereo not drawn), in test [1], the Activity came to 154%. The IC50 in test [2] came out at 20900 nM.
As a reminder, the EC50 is the concentration giving half of the maximal effect. In test [3], `Cc1[nH]c2ccccc2c1CCNCc1ccc(/C=C/C(=O)NO)cc1` [PANOBINOSTAT] gave an EC50 of 420 nM.
In test [4], `COc1ccccc1/C=C/C(=O)/C=C/c1ccccc1OC` came in with a concentration giving a half-maximal response (EC50) of 2170 nM.
For `CC(C)CN(CC(=O)N1CCN(CC(OCc2ccc3ccccc3c2)c2ccc(Cl)cc2Cl)CC1)CC(C)C` (stereo not drawn), the Activity in test [1] is 196%.
In the case of `N#Cc1c(O)c2c(-c3ccc(-c4ccccc4O)cc3)csc2[nH]c1=O`, the EC50 in test [5] is 800 nM.
In test [2], `COC(=O)Nc1nc2cc(C(=O)c3ccc(F)cc3)ccc2[nH]1` [FLUBENDAZOLE] yielded an IC50 of 750 nM. That is a sub-micromolar value.
For the compound `N#Cc1c(O)c2c(-c3ccccc3)csc2[nH]c1=O`, the EC50 in test [5] was determined as 38000 nM.
